For three compounds, inhibition and residual activity results are on record in ChEMBL document CHEMBL5696442, “Discovery of type II inhibitors of TGFβ-activated kinase 1 (TAK1) and mitogen-activated protein kinase kinase kinase kinase 2 (MAP4K2)” (J Med Chem, 2015).

The target in assay [1] is T1, Serine/threonine-protein kinase ULK1 (Homo sapiens) (UniProt O75385).
T1 sequence (whole entry): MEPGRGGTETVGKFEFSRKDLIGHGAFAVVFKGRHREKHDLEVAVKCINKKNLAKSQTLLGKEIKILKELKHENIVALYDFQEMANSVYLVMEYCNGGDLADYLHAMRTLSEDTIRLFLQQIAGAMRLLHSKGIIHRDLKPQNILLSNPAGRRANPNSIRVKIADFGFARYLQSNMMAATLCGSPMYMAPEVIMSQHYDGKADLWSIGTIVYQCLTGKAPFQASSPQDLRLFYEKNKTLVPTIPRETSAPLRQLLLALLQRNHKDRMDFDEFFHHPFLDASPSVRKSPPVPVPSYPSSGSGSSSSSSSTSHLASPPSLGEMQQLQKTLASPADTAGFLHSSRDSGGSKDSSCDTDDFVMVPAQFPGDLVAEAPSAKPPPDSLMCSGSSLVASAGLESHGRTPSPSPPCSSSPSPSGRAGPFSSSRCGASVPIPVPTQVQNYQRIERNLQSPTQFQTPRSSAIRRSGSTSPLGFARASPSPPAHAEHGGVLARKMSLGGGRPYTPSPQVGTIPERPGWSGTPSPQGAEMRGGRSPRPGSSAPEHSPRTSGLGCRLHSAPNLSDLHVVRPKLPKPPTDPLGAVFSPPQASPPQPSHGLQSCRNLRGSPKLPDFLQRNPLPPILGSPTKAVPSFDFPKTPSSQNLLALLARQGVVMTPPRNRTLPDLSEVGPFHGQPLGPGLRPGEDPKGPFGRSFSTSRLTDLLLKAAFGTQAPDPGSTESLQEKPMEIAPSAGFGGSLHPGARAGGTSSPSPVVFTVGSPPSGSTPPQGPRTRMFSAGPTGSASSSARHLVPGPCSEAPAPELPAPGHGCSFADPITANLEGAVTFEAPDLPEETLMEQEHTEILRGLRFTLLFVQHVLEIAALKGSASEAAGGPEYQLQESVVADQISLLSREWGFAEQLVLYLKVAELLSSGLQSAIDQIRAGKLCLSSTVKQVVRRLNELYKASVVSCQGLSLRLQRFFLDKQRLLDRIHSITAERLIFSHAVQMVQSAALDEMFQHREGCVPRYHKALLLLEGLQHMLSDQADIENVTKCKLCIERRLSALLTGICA
In words: Inhibition of ULK1 (unknown origin) at 1 uM by Ambit Kinomescan binding assay relative to control.

In assay [2] the target is Casein kinase I isoform epsilon (Homo sapiens) (UniProt P49674). In words: Inhibition of CSNK1E (unknown origin) at 1 uM by Ambit Kinomescan binding assay relative to control.
In assay [3] the target is Tyrosine-protein kinase receptor UFO (Homo sapiens) (UniProt P30530). The assay can be described thus: Inhibition of AXL (unknown origin) at 1 uM by Ambit Kinomescan binding assay relative to control; values are per cent of control.
Tyrosine-protein kinase receptor UFO (Homo sapiens), sequence (P30530 whole entry, canonical isoform): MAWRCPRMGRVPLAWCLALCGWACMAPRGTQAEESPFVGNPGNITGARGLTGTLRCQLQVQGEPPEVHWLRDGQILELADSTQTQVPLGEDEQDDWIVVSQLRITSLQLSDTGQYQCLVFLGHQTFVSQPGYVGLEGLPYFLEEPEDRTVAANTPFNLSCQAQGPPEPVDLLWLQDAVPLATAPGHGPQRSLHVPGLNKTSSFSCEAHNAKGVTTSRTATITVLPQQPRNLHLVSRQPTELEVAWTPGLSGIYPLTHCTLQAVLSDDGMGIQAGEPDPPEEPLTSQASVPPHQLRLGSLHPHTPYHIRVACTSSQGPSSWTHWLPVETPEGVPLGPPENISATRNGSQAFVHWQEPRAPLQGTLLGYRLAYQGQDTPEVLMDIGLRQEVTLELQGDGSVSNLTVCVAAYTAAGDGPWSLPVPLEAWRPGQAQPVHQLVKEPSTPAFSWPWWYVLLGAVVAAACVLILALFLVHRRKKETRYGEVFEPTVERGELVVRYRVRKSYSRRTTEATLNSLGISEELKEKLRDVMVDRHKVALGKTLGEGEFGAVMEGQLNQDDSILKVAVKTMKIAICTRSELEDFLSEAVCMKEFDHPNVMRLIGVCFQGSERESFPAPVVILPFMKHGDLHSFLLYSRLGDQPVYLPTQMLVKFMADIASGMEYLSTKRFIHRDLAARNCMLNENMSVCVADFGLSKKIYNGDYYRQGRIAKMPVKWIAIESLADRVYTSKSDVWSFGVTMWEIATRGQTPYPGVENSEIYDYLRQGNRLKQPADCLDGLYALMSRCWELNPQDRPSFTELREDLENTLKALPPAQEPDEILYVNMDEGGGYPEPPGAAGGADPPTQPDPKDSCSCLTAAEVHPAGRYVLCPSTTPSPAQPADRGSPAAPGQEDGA
Assay [4] has as its system Phosphatidylinositol 4,5-bisphosphate 3-kinase catalytic subunit alpha isoform (Homo sapiens), P42336 [H1047Y]. The assay can be described thus: Inhibition of PIK3CA H1047Y mutant (unknown origin) at 1 uM by Ambit Kinomescan binding assay relative to control.
In assay [5] the target is T2, Dual specificity mitogen-activated protein kinase kinase 7 (Homo sapiens) (UniProt O14733).
T2 sequence (whole entry): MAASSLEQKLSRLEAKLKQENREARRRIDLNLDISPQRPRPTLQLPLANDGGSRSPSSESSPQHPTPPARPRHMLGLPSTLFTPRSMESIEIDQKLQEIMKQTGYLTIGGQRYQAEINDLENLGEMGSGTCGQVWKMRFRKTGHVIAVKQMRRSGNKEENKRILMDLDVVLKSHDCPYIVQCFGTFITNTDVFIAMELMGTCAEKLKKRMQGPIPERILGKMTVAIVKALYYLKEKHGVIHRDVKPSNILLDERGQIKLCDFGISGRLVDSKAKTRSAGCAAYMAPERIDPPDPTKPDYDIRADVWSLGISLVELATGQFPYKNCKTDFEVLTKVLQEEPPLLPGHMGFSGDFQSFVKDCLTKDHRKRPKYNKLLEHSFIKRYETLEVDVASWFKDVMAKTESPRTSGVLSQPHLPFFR
The assay can be described thus: Inhibition of MAP2K7 Lys2 labeling site in human A-375 cells at 5 uM by KiNativ Profiling analysis relative to control. It is filed as cell-based.

Assay [6] has as its target Dual specificity tyrosine-phosphorylation-regulated kinase 2 (Homo sapiens) (UniProt Q92630). In words: Inhibition of DYRK2 (unknown origin) at 1 uM by Ambit Kinomescan binding assay relative to control; values are per cent of control.
Assay [7] deals with Cyclin-dependent kinase 9 (Homo sapiens) (UniProt P50750). The assay can be described thus: Inhibition of CDK9 K2 labeling site in human Huh-7 cells at 10 uM by KiNativ Profiling analysis relative to control. In kind it is cell-based.
Cyclin-dependent kinase 9 (Homo sapiens), sequence (P50750 whole entry): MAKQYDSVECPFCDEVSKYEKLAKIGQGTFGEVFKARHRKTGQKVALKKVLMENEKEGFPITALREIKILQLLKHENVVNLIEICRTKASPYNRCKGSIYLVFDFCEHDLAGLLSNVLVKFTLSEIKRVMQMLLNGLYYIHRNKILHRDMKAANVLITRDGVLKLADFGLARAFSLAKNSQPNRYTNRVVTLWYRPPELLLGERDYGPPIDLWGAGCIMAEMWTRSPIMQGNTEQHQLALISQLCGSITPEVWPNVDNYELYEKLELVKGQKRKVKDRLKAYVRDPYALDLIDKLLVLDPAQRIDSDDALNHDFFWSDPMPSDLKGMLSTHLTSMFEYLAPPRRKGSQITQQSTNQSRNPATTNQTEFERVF
Assay [8] concerns the target Dual specificity mitogen-activated protein kinase kinase 1 (Homo sapiens) (UniProt Q02750). In words: Inhibition of MAP2K1 Lys2 labeling site harbouring DVKPSNILVNSR in human A-375 cells at 5 uM by KiNativ Profiling analysis relative to control. It is filed as cell-based.
The target of assay [9] is Epidermal growth factor receptor (Homo sapiens) (UniProt P00533). The assay can be described thus: Inhibition of EGFR Lys1 labeling site in human A-375 cells at 5 uM by KiNativ Profiling analysis relative to control. In kind it is cell-based.
In assay [10] the target is Microtubule-associated serine/threonine-protein kinase 1 (Homo sapiens) (UniProt Q9Y2H9). The assay can be described thus: Inhibition of MAST1 Lys2 labeling site in human A-375 cells at 5 uM by KiNativ Profiling analysis relative to control.
Microtubule-associated serine/threonine-protein kinase 1 (Homo sapiens), sequence (Q9Y2H9 whole entry, looked up): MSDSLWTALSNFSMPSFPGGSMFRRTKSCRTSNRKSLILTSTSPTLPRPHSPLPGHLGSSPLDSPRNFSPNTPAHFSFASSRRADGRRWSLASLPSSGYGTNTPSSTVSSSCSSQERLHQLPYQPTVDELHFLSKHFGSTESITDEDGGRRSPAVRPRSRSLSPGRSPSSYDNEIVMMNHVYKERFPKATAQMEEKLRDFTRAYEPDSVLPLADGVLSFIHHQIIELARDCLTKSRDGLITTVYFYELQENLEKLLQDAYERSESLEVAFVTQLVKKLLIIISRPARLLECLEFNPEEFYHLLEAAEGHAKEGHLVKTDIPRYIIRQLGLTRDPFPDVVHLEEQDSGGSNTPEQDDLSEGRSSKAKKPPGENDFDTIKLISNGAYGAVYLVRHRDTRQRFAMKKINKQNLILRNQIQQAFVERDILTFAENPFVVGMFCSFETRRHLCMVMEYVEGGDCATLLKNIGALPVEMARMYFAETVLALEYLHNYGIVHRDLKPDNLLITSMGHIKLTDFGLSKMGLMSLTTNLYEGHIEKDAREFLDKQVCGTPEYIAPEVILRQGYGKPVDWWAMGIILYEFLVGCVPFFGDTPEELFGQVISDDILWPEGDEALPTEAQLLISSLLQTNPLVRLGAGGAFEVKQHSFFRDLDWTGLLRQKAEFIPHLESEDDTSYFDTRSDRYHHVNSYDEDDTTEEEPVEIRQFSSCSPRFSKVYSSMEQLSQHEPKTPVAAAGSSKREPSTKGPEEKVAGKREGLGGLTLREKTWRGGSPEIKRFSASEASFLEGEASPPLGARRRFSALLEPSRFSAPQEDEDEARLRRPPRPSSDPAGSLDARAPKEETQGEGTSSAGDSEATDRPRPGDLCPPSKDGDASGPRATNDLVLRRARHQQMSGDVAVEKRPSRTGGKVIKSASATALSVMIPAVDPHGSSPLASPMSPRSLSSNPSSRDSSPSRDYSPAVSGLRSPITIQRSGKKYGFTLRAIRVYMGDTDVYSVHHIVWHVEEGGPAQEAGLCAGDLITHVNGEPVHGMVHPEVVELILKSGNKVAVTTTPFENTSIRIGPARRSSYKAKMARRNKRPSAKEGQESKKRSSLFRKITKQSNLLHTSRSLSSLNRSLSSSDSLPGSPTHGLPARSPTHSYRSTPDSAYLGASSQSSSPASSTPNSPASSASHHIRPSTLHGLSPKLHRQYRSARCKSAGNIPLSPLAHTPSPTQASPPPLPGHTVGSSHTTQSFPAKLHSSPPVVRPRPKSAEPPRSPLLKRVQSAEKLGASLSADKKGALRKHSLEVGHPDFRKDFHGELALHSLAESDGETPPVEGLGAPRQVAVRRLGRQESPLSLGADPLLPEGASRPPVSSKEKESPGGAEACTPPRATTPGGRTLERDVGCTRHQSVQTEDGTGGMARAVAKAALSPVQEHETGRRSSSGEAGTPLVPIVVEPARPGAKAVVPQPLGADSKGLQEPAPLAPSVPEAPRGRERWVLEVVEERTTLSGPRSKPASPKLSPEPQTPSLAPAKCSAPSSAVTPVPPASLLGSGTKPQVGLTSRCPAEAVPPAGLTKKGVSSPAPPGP
Assay [11] has as its target MAP/microtubule affinity-regulating kinase 3 (Homo sapiens) (UniProt P27448). In words: Inhibition of MARK3 Lys2 labeling site in human Huh-7 cell lysate at 1 uM by KiNativ Profiling analysis relative to control. It is filed as subcellular.
The target in assay [12] is Calcium/calmodulin-dependent protein kinase type II subunit delta (Homo sapiens) (UniProt Q13557). In words: Inhibition of CaMK2d Lys1 labeling site harbouring IPTGQEYAAKIINTKK in human Huh-7 cell lysate at 1 uM by KiNativ Profiling analysis relative to control. In kind it is subcellular.
Calcium/calmodulin-dependent protein kinase type II subunit delta (Homo sapiens), sequence (Q13557 whole entry): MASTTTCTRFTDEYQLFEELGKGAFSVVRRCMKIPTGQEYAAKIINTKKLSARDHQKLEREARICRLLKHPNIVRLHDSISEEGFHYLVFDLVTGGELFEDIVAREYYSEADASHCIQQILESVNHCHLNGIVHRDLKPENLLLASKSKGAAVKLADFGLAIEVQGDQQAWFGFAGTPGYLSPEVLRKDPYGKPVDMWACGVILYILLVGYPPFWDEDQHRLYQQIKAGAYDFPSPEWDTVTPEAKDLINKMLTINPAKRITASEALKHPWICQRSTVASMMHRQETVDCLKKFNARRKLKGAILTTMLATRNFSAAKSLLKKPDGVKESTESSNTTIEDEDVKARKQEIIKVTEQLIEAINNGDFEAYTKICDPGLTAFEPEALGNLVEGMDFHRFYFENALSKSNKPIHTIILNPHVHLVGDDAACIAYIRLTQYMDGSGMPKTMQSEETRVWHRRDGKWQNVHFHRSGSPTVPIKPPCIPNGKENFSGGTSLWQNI
Assay [13] deals with Calcium/calmodulin-dependent protein kinase type II subunit alpha (Homo sapiens) (UniProt Q9UQM7). The assay can be described thus: Inhibition of CaMK2a Lys2 labeling site in human Huh-7 cells at 1 uM by KiNativ Profiling analysis relative to control. It is filed as cell-based.
A short description of assay [14]: Inhibition of KHS2 Lys1 labeling site in human Huh-7 cells at 1 uM by KiNativ Profiling analysis relative to control. The settings on record: condition cancer.

Phosphatidylinositol 4,5-bisphosphate 3-kinase catalytic subunit alpha isoform (Homo sapiens), P42336 [H1047Y], sequence (P42336 whole entry H1047Y, canonical isoform): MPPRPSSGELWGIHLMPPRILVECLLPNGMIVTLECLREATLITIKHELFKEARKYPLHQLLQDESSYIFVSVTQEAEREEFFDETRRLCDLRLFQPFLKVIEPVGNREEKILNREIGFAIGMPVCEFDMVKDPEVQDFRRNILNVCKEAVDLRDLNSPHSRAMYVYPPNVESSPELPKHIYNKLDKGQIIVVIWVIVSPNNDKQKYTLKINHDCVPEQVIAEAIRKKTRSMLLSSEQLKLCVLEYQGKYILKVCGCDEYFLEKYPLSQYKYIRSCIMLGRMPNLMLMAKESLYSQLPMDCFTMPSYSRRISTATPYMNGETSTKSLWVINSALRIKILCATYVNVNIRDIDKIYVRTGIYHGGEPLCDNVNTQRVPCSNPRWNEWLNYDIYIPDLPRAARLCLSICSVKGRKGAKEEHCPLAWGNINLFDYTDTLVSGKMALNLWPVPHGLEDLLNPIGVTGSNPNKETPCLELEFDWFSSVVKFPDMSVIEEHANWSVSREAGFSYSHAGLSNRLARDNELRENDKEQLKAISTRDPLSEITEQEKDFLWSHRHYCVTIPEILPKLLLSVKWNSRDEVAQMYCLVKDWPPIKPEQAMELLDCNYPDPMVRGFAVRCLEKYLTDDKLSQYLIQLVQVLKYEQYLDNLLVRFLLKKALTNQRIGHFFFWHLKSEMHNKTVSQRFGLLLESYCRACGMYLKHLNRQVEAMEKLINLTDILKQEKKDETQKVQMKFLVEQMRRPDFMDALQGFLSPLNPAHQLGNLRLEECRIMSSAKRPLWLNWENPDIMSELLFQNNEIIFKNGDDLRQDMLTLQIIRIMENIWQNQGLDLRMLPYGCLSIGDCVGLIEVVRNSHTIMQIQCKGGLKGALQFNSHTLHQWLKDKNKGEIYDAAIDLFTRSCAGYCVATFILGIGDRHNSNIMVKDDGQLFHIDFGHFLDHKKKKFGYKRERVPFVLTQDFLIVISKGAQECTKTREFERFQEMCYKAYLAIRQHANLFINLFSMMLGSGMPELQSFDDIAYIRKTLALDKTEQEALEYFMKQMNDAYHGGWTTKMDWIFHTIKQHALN
Dual specificity mitogen-activated protein kinase kinase 1 (Homo sapiens), sequence (Q02750 whole entry): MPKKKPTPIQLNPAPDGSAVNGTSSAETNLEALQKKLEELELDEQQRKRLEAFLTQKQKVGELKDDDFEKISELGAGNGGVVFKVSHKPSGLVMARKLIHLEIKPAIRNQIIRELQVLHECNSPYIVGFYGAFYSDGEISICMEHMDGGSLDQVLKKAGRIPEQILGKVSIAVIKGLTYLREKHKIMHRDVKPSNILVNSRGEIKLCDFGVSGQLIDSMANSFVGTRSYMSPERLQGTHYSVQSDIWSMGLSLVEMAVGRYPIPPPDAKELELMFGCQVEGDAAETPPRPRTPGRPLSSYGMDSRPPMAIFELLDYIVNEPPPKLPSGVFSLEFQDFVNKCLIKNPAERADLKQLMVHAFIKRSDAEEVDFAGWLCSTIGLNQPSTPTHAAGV

One may read the inhibition as the drop in the measured response relative to a control, in per cent. The term residual activity denotes the share of the control activity or signal that is left under treatment. Low values mean little activity left, high ones much activity left. Take `CCN1CCN(Cc2ccc(NC(=O)c3ccc(C)c(/C=C/c4cnc5[nH]ccc5c4OC)c3)cc2C(F)(F)F)CC1`: the inhibition was 68% in assay [1], 80% in assay [2], 71% in [4] and 57% in [5]. The residual activity in [3] turned out to be 55%; in [6], 68%.
Turning to `CCN1CCN(Cc2ccc(NC(=O)c3ccc(C)c(Oc4ccnc5[nH]ccc45)c3)cc2C(F)(F)F)CC1`, the inhibition is 0.4% in [7], -10% in [8], -1.5% in assay [9] and -6.1% in [10].
`CNc1cc(Oc2cc(C(=O)Nc3cc(N4CCN(C)CC4)cc(C(F)(F)F)c3)ccc2C)ncn1`: the inhibition in [11] is -4.1%; in assay [12], 15.4%; in [13], 20.3%. In addition, the inhibition at 1 µM in [14] was determined as 5.3%.
